{"source": "paper PMC10517462", "about": "“Small molecule targeting of the p38/Mk2 stress signaling pathways to improve cancer treatment” (BMC Cancer, 2023)", "key": {"NCI-H69 cells [1]": {"tested_on": "NCI-H69 cells", "assay": "FACS-based (DRAQ7) viability assay", "type": "cell-based, human", "procedure": "[…] Etoposide, SB203580 and MK2.III were all dissolved in 0.2% of DMSO before use. Cells treated only with the carrier molecule DMSO (0.2%) served as a control.\nViability analysis was performed by staining with the […], stoichiometric DNA stain DRAQ7 (640 or 633 nm excitation and 670 nm emission; Biostatus Limited). After 48-h treatment with DNA damaging agents and/or inhibitors, cells were washed once with RPMI 1640 and resuspended in 1 ml culture media at a concentration of less than 5 × 10^5/ ml. Cells were stained with 20 µM of DRAQ7 and incubated at 37 °C for 10 min before FACS Calibur cytometer analysis. Fluorescent signals were amplified using linear mode. Cell cycle analysis was performed either by staining DRAQ7 or Propidium Iodide (PI). Cells were stained with 20 µM of DRAQ7 and incubated at 37 °C for 10 min before analysis on a FACSCalibur cytometer. Propidium Iodide (PI, excited with 488 nm laser, collected with 585/52 bandpass filter) was used in the large-scale experiments. Samples were then fixed with 70% EtOH following the viability assay and stored at 4 °C overnight before the experiment. After fixation with 70% EtOH (added drop-wise) for 24 h, samples were centrifuged into the pellet and then washed twice with ice-cold PBS. The supernatant was discarded and pellets were resuspended in 100 µl of RNase A (100 µg/ml) and 400 µl of PI ([…] in PBS). Analysis of flow cytometry data was performed using FlowJo software. Untreated, unstained cells were used as a negative control to determine the location of viable cells on the dot plots. Events below a threshold size were interpreted as cellular debris and were removed from the dataset, leaving a whole cell population."}, "NCI-H69 xenograft": {"tested_on": "NCI-H69 xenograft", "assay": "Tumor (xenograft) suppression with combination chemotherapy in SCID mice", "type": "in vivo", "conditions": "for Tumor Volume (mm^3) median (25th and 75th quartile): VP-16 12 mg/kg", "procedure": "To establish the most suitable xenograft model for the main experiment we used two mouse lines – BALB/c Nude and SCID (both female, 6 weeks, n = 20, Charles River). Both mouse lines were injected with NCI-H69 cancer cells (xenograft). Before injection, cells were grown at 37 °C in RPMI-1640 medium containing 10% FBS and pen/strep. Cells were mixed with Matrigel (1:1) and depending on the group 5 × 10^6 or 10 × 10^6 cells were injected into a mouse subcutaneously along the spine to the level of the left scapula. Mice were divided into 4 groups: (1) 5 × 10^6 NCI-H69 SCID (n = 5); (2) 5 × 10^6 NCI-H69 Nude (n = 5); (3) 10 × 10^6 NCI-H69 SCID (n = 5); and (4) 10 × 10^6 NCI-H69 Nude (n = 5).\nThe main experiment (injection of the drugs) took place after the tumor growth was established. The tumor growth in mice following the injection of cells was monitored twice a week and upon reaching the volume of ~ 100 mm^3, animals were randomized into 5 groups (12 female SCID mice in each group). The drug treatment was performed as follows: the first group was a control and received a placebo in the form of PBS (tumor volume 95 ± 38 mm^3); the second group received 12 mg/kg of Etoposide (tumor volume 101 ± 51 mm^3); the third group was injected with 4 mg/kg of MK2.III (tumor volume 105 ± 44 mm^3); fourth and fifth groups were injected with 12 mg/kg of Etoposide and 4 mg/kg or 2 mg/kg of MK2.III (tumor volumes 112 ± 57 and 107 ± 49 mm^3 respectively). Drugs were injected intraperitoneally daily. Etoposide was injected 3 days after the randomization into groups and MK2.III was administered for 28 days. Tumor growth/suppression was measured using calipers every 3–4 days for the duration of the 28-day treatment and the tumor volume was calculated as follows:[…],\nAntitumor properties of drugs in the test group were determined based on the slowing of the tumor growth or tumor volume compared with the control group receiving PBS. Animal welfare was monitored throughout the study period to ensure that animals in distress were euthanized by carbon dioxide asphyxiation. All the animals were also euthanized by carbon dioxide asphyxiation following the completion of the study.\nDescriptive statistics were used to summarize the tumor size and data reported as medians and 25th and 75th quartiles. Wilcoxon sum rank test was used to investigate the effects of the treatments on tumor growth. […] Statistical analyses were performed on the SigmaPlot 11.0 software."}, "[2]": {"tested_on": "MDA-MB-231 breast cancer cell line", "assay": "CCK8 cell viability assay, MDA-MB-231", "type": "cell-based, human", "conditions": "MK2.III 1 µM or etoposide 150 µM alone, 24 h", "procedure": "(§1) To assess the effect of MK2.III kinase inhibitor and the etoposide (VP-16) on the viability of different cancer cell lines, cells were seeded in 96-well plates in a concentration of 5000 cells per well. After 12 h, etoposide and 1 μM MK2.III diluted in culture media were added into the wells for 24 h. NCI-H69 cells were exposed to a series of etoposide concentrations from 20 μM to 150 μM. MDA-MB-231, SW 620, and SW 480 cell lines were incubated with 150 μM etoposide. After treatment, 10 μL of the CCK-8 reagent (96992, Sigma) was added to each well for 1 h followed by optical density measurement at 450 nm using hybrid plate reader Synergy H1."}, "[3]": {"set-up": "method as in PMID 26502061", "conditions": "cited from earlier work"}, "[4]": {"tested_on": "SW480 colorectal cancer cell line", "assay": "CCK8 cell viability assay, SW480", "type": "cell-based, human", "conditions": "MK2.III 1 µM alone, 24 h", "procedure": "as §1"}, "NCI-H69 cells [5]": {"tested_on": "NCI-H69 cells", "assay": "FACS-based cell cycle analysis", "set-up": "species or system human", "conditions": "single treatment, increasing dose", "procedure": "The cells were grown in 12 well plates (Scientific Laboratory Supplies Limited, UK) in RPMI 1640 (Gibco, UK) supplemented with 10% FBS (Autogen Bioclear, UK) and 10,000 U/ml penicillin and 10 mg/ml streptomycin (Sigma, UK) at 37 °C under 5% CO2 and treated with 10, 20, 50, 100 and 150 µM of DNA damaging agent etoposide (VP-16) (Sigma, UK) in the presence or absence of p38MAPK inhibitor SB203580 (Tocris Chemical Co., UK) or MK2 inhibitor MK2.III (Merck, UK) in concentrations of 0, 0.3125, 0.625, 1.25, 2.5, and 5.0 µM. Etoposide, SB203580 and MK2.III were all dissolved in 0.2% of DMSO before use. Cells treated only with the carrier molecule DMSO (0.2%) served as a control.\nViability analysis was performed by staining with the […], stoichiometric DNA stain DRAQ7 (640 or 633 nm excitation and 670 nm emission; Biostatus Limited). After 48-h treatment with DNA damaging agents and/or inhibitors, cells were washed once with RPMI 1640 and resuspended in 1 ml culture media at a concentration of less than 5 × 10^5/ ml. Cells were stained with 20 µM of DRAQ7 and incubated at 37 °C for 10 min before FACS Calibur cytometer analysis. Fluorescent signals were amplified using linear mode. Cell cycle analysis was performed either by staining DRAQ7 or Propidium Iodide (PI). Cells were stained with 20 µM of DRAQ7 and incubated at 37 °C for 10 min before analysis on a FACSCalibur cytometer. […]"}}}
{"smiles": "O=C1NCCc2[nH]c(-c3ccnc(-c4cnc5ccccc5c4)c3)cc21", "note": "[MK2.III]", "values": [{"measurement": "Viable cells (%)", "setting": "NCI-H69 cells [1]; Table 1 dose response, agent alone 0.321 µM (lowest dose), 48 h", "result": 87.4, "unit": "%"}, {"measurement": "Viable cells (%)", "setting": "NCI-H69 cells [1]; Table 1 dose response, agent alone 0.626 µM, 48 h", "result": 90.2, "unit": "%"}, {"measurement": "Viable cells (%)", "setting": "NCI-H69 cells [1]; Table 1 dose response, agent alone 1.25 µM, 48 h", "result": 87.3, "unit": "%"}, {"measurement": "Viable cells (%)", "setting": "NCI-H69 cells [1]; Table 1 dose response, agent alone 2.5 µM, 48 h", "result": 88.4, "unit": "%"}, {"measurement": "Viable cells (%)", "setting": "NCI-H69 cells [1]; Table 1 dose response, agent alone 5.0 µM (highest dose), 48 h", "result": 83.5, "unit": "%"}, {"measurement": "Viable cells (%)", "setting": "NCI-H69 cells [1]; Table 2, VP-16 0 µM (inhibitor alone: MK2.III 1.0 µM or SB203580 2.5 µM), DMSO control 74.6%", "result": 66.1, "unit": "%"}, {"measurement": "Difference in tumor size versus control", "setting": "NCI-H69 xenograft; at any checkpoint, etoposide 12 mg/kg, MK2.III 4 mg/kg, or etoposide + MK2.III 2 mg/kg", "result": "no significant difference"}, {"measurement": "Tumor Volume (mm^3) median (25th and 75th quartile)", "setting": "NCI-H69 xenograft; day 11 upon treatment, MK2.III 4 mg/kg IP daily", "result": "516 (401;703) mm^3"}, {"measurement": "Tumor Volume (mm^3) median (25th and 75th quartile)", "setting": "NCI-H69 xenograft; day 18 upon treatment, MK2.III 4 mg/kg IP daily", "result": "843 (712;1197) mm^3"}, {"measurement": "Tumor Volume (mm^3) median (25th and 75th quartile)", "setting": "NCI-H69 xenograft; day -1 upon treatment (baseline), MK2.III 4 mg/kg IP", "result": "106 (72;132) mm^3"}, {"measurement": "Effect of single agent on viability", "setting": "[2]", "result": "does not affect the viability"}, {"measurement": "Solubility", "setting": "[3]", "result": "poor solubility"}, {"measurement": "Effect of single agent on viability", "setting": "[4]", "result": "does not affect the viability"}, {"measurement": "Effect on cell cycle profile, single agent", "setting": "NCI-H69 cells [5]", "result": "little effect on the cell cycle profile"}]}
